Data from patent EP2271935B1, “METHOD AND KIT FOR THE EX VIVO EVALUATION OF THE RESPONSE OF A TUMOR TO CONDITIONS TO BE TESTED” (Universität Leipzig, priority 2008, dated 2009).
Where two headings read alike, the source gives them in different places.

Test system: epithelial cell line KB (DSMZ ACC 136)
Test: MTT assay of proliferation under varied riboflavin content and light exposure
Type: cell-based, human
Source text: To address this question, three media, a) the RPMI 1640 without riboflavin and phenol red that is used in the method according to the invention and was manufactured according to our specifications by Biochrom, as well as two different RPMI 1640 charges purchased from Invitrogen which were each containing 532 nmol/L riboflavin, b) a phenol red-free (Gibco 11835), and c) a conventional RPMI 1640 (Gibco 21875) with 13.284 µmol/L phenol red. All media were supplemented with 2 mmol/L L-alanyl-1-glutamine as stabilized glutamine source (Biochrom K0302 Lot 0755 S) and the same amount of 10% (v/v) of heat-inactivated fetal calf serum (FCS) that was purchased from Invitrogen (Lot 41Q7554K) with a yield of 198 nmol/L riboflavin. […] These medium concentrations define the riboflavin concentrations in controls (see below).
In addition to the influences exerted by the different types of media alone, the riboflavin-dependent impact on the outcome of the docetaxel treatment was investigated. For this purpose 100 µl/well of docetaxel dilutions containing threefold the concentration indicated were added into the wells of microwell plates. The following seven docetaxel concentrations were tested: 19.38, 38.75, 77.5, 155, 310, 620, and 1,240 pmol/L.
To examine photoactivation-dependent riboflavin-mediated effects disturbing the outcome of ex-vivo chemoresponse-evaluation by conventional cell culture medium, and in particular in the absence of flavin-protecting experimental conditions, varying amounts of riboflavin were added. A stock solution of 200 µM (-)-riboflavin (CAS 83-68-5, Sigma R9504, FW=376.37 g/mol, purity >99%, cell culture tested) in phosphate buffered saline was diluted to adjust in each case the highest final concentration in culture (this means: after completion of the assay by addition of the other two components to the final assay volume of 300 µL) to exactly 10 µmol/L. Serial log10-dilutions were made from this concentration in each corresponding medium. These gave final concentrations in cell culture of 10.000, 1.018, 0.12, and 0.03 µmol/L in the case of medium a) (the medium according to the method of the invention), and concentrations of 10.000, 1.449, 0.594, and 0.508 µmol/L using media b) and c).
In general, each combination of riboflavin and docetaxel were tested in duplicate, and controls without additional riboflavin in quadruplicate for each experimental setting in the same 96-well plate. The experimental conditions were as follows: For each of the used media, two different plates were prepared simultaneously and either handled completely under flavin-protecting conditions (illumination only by sodium discharge lamps with an emission wavelength of 589 nm [i]), or in the same bench (Thermo MSC 12) with the installed light inside their working chamber switched on. The dilution of docetaxel and those of riboflavin in the particular medium were prepared for all four plates of each medium type prior to the other working steps under flavin-protecting conditions. Thus the administrations of these dilutions took about 20 min either under flavin-protecting conditions or illuminated conditions. After completed preparation of the plates that thereafter contained 200 µL of both diluted compounds, the plates were incubated 2 h in the incubator to allow for adjustment of the appropriate pH.
In between the stock culture of KB was harvested by trypsination of a 3-days stock culture (exponential growth phase). Stock cultures of KB cells always were grown without any antibiotic or antimycotic in phenol red- and riboflavin-free RPMI 1640 supplemented with 10% (v/v) FCS and were adapted to this medium for more than five passages. They were always handled at room temperature or warmer and were never exposed to light other than the light of a sodium discharge lamp with an emission wavelength of 589 nm for at least five passages. […]

[1] = medium a) (plate 01), 10 µmol/L riboflavin

With CC(=O)O[C@@]12CO[C@@H]1C[C@H](O)[C@@]1(C)C(=O)[C@H](O)C3=C(C)[C@@H](OC(=O)[C@H](O)[C@@H](NC(=O)OC(C)(C)C)c4ccccc4)C[C@@](O)([C@@H](OC(=O)c4ccccc4)[C@H]21)C3(C)C [docetaxel] the IC50 (Homo sapiens, Epithelial cell, Plate No. 01; Riboflavin 10000 nmol/L; medium a), flavin-protecting conditions, read-out: IC50 for docetaxel normalized to medium control of medium with same riboflavin content) was 0.123 nM, the IC50 (Homo sapiens, Epithelial cell, Plate No. 05; Riboflavin 499 nmol/L; medium b) phenol red-free RPMI 1640, flavin-protecting conditions, read-out: IC50 for docetaxel with reference to control with same riboflavin content) was 0.206 nM and the IC50 (Homo sapiens, Epithelial cell, Plate No. 05; Riboflavin 499 nmol/L; medium b), flavin-protecting conditions, read-out: IC50 for docetaxel normalized to medium control of medium with same riboflavin content) was 0.1 nM. It also gave an IC50 (Homo sapiens, Epithelial cell, Plate No. 05; Riboflavin 508 nmol/L; medium b) phenol red-free RPMI 1640, flavin-protecting conditions, read-out: IC50 for docetaxel with reference to control with same riboflavin content) of 0.182 nM, an IC50 (Homo sapiens, Epithelial cell, Plate No. 05; Riboflavin 508 nmol/L; medium b), flavin-protecting conditions, read-out: IC50 for docetaxel normalized to medium control of medium with same riboflavin content) of 0.088 nM and an IC50 (Homo sapiens, Epithelial cell, Plate No. 05; Riboflavin 594 nmol/L; medium b) phenol red-free RPMI 1640, flavin-protecting conditions, read-out: IC50 for docetaxel with reference to control with same riboflavin content) of 0.196 nM. The IC50 (Homo sapiens, Epithelial cell, Plate No. 05; Riboflavin 594 nmol/L; medium b), flavin-protecting conditions, read-out: IC50 for docetaxel normalized to medium control of medium with same riboflavin content) was 0.0949 nM, the IC50 (Homo sapiens, Epithelial cell, Plate No. 05; Riboflavin 1449 nmol/L; medium b) phenol red-free RPMI 1640, flavin-protecting conditions, read-out: IC50 for docetaxel with reference to control with same riboflavin content) was 0.197 nM and the IC50 (Homo sapiens, Epithelial cell, Plate No. 05; Riboflavin 1449 nmol/L; medium b), flavin-protecting conditions, read-out: IC50 for docetaxel normalized to medium control of medium with same riboflavin content) was 0.0954 nM. For the same compound, the IC50 (Homo sapiens, Epithelial cell, Plate No. 05; Riboflavin 10000 nmol/L; medium b) phenol red-free RPMI 1640, flavin-protecting conditions, read-out: IC50 for docetaxel with reference to control with same riboflavin content) was 0.238 nM, the IC50 (Homo sapiens, Epithelial cell, Plate No. 05; Riboflavin 10000 nmol/L; medium b), flavin-protecting conditions, read-out: IC50 for docetaxel normalized to medium control of medium with same riboflavin content) was 0.115 nM and the IC50 (Homo sapiens, Epithelial cell, Plate No. 09; Riboflavin 499 nmol/L; medium c) conventional RPMI 1640 with phenol red, flavin-protecting conditions, read-out: IC50 for docetaxel with reference to control with same riboflavin content) was 0.233 nM. It also gave an IC50 (Homo sapiens, Epithelial cell, Plate No. 09; Riboflavin 499 nmol/L; medium c), flavin-protecting conditions, read-out: IC50 for docetaxel normalized to medium control of medium with same riboflavin content) of 0.1 nM, an IC50 (Homo sapiens, Epithelial cell, Plate No. 09; Riboflavin 508 nmol/L; medium c) conventional RPMI 1640 with phenol red, flavin-protecting conditions, read-out: IC50 for docetaxel with reference to control with same riboflavin content) of 0.189 nM and an IC50 (Homo sapiens, Epithelial cell, Plate No. 09; Riboflavin 508 nmol/L; medium c), flavin-protecting conditions, read-out: IC50 for docetaxel normalized to medium control of medium with same riboflavin content) of 0.0813 nM. It also gave an IC50 (Homo sapiens, Epithelial cell, Plate No. 09; Riboflavin 594 nmol/L; medium c) conventional RPMI 1640 with phenol red, flavin-protecting conditions, read-out: IC50 for docetaxel with reference to control with same riboflavin content) of 0.201 nM, an IC50 (Homo sapiens, Epithelial cell, Plate No. 09; Riboflavin 594 nmol/L; medium c), flavin-protecting conditions, read-out: IC50 for docetaxel normalized to medium control of medium with same riboflavin content) of 0.0865 nM and an IC50 (Homo sapiens, Epithelial cell, Plate No. 09; Riboflavin 1449 nmol/L; medium c) conventional RPMI 1640 with phenol red, flavin-protecting conditions, read-out: IC50 for docetaxel with reference to control with same riboflavin content) of 0.284 nM. The IC50 (Homo sapiens, Epithelial cell, Plate No. 09; Riboflavin 1449 nmol/L; medium c), flavin-protecting conditions, read-out: IC50 for docetaxel normalized to medium control of medium with same riboflavin content) was 0.122 nM, the IC50 (Homo sapiens, Epithelial cell, Plate No. 09; Riboflavin 10000 nmol/L; medium c) conventional RPMI 1640 with phenol red, flavin-protecting conditions, read-out: IC50 for docetaxel with reference to control with same riboflavin content) was 0.394 nM and the IC50 (Homo sapiens, Epithelial cell, Plate No. 09; Riboflavin 10000 nmol/L; medium c), flavin-protecting conditions, read-out: IC50 for docetaxel normalized to medium control of medium with same riboflavin content) was 0.169 nM. For the same compound, the IC50 (Homo sapiens, Epithelial cell, medium a) (plate 01), 10 µmol/L riboflavin, flavin-protecting conditions, read-out: IC50 relating to medium control) was 0.224 nM, the IC50 (Homo sapiens, Epithelial cell, medium a) (plate 01), 10 µmol/L riboflavin, flavin-protecting conditions, read-out: IC50 with reference to individual control) was 0.257 nM and the IC50 (Homo sapiens, Epithelial cell, plates 01, 05, 09 handled completely under flavin-protecting conditions, three types of RPMI 1640, read-out: IC50 values for docetaxel) was roughly 0.2 nM. For the same compound, the “IC50 as % of the IC50 at 20 nmol/L riboflavin, relating to medium control” value [1] was 107% and the “IC50 as % of the IC50 detected in a) at 20 nmol/L riboflavin, individual control” value [1] was 128%.
